Test results taken from US20080279957A1, “Immunomodulating compositions from bile” (Lorus Therapeutics Inc., priority 2000, published 2008).
“And” between values parts separate entries of the source, which are not always exact repeats. Identical values can stand only once.

Columns and labels:
Assay type in all cases: cell-based
human PBMN [1] = test: Direct TNF release from PBMN by composition in the absence of LPS (ELISA); details: 24 hrs; seven patient samples
Protocol: (§1) Peripheral blood mononuclear cells (PBMNs) were isolated by gradient centrifugation on Ficoll-Hypaque (Pharmacia). The PBMN were washed twice with phosphate buffered saline (PBS), counted and resuspended in RPMI 1640 culture medium (Gibco Labs) at a concentration of 10^6 cells/0.5 ml. These cells were cultured in 24 well, flat-bottomed tissue culture plates (Falcon, Becton, Dickinson). […] The total volume was then made up to 1 ml/well with RPMI. As control, PBS was used instead of composition. The cells were cultured for 2, 6, 24, 48 and 72 hours at 37° C. in a humidified 5% CO2 incubator. At the end of each incubation period, the cells were harvested and cell free culture fluids were obtained by centrifugation at 9000 rpm for 10 minutes. The samples were then stored at −70° C. until ELISA for cytokines was carried out (within 2 weeks).
The direct stimulatory effect of Batch B0203 was tested at different volumes and then at different times.
Batch B0203 stimulated maximum TNF-release at about 100 μl (Table 16). […] Thus, the composition was able to stimulate TNF-release on its own, that is in the absence of LPS and the curves for TNF-release were similar to when the composition and LPS were combined.

human PBMN [2] = test: LPS-stimulated release of cytokines other than TNF by PBMN, LPS plus composition; details: LPS (50 ng/ml) alone
Protocol: as §1, with “In the studies of TNF, whole blood was drawn from 5 healthy subjects into heparinized Vacutainer tubes. Peripheral” for “Peripheral”
Experiments were performed to determine whether the composition of the invention would impair LPS-stimulated release. […] The effects on the other cytokines IL-6, IL-8, IFN-gamma and GM-CSF were not as marked. However, in no instance did the compositions tested augment the effect of LPS stimulated release of cytokines.

human PBMN [3] = test: LPS-induced release of TNF by PBMN, LPS plus composition or fractions (Example 9)
Protocol: as §1, with “In the studies of TNF, whole blood was drawn from 5 healthy subjects into heparinized Vacutainer tubes. Peripheral” for “Peripheral”, “As control, PBS was used instead of composition.” left out
The effect of different volumes of the compositions of the invention in inhibiting LPS stimulated release of TNF was examined.
This separation technique is used for small polar substances. […] The precipitate and the soluble fraction were separated. Both the precipitate and soluble fraction were taken to dryness by lyophilization. The precipitate and soluble fraction were reconstituted in aqueous solutions and both analyzed by RP-HPLC and tested for TNF-α releasing activity.
In the next series of experiments, the activity of the precipitate and supernatants were evaluated after their separation by C18 RP-HPLC. The precipitate and supernatant were collected as 2 pools from RP-HPLC: 2 to 21 min and 21 to 46 min.

human PBMN [4] = test: TNF release by PBMN with LPS plus composition in the presence of Polymyxin
Protocol: as §1, with “In the studies of TNF, whole blood was drawn from 5 healthy subjects into heparinized Vacutainer tubes. Peripheral” for “Peripheral”
Polymyxin inhibits the action of endotoxin on leukocytes. […] In the absence of polymyxin, LPS induces 517 pg/ml of TNF-α, whereas in the presence of Polymyxin 11 pg/ml of TNF-α is released.
Initially, the effect of different fractions were examined in the presence of Polymyxin. […] Batch BO213 was 369 and high. […] Therefore, whether the hyperosmolarity of the samples was inhibiting or enhancing TNF-α release was investigated as set out below.

[5] = LPS 50 ng, first line printed LPS (1) (Table 31)
[6] = LPS 50 ng, second line printed LPS (1) (Table 31)

## Lipopolysaccharide [LPS]
Human PBMN [1]
  TNF Released: 1501 ± 284 pg/mL
Human PBMN [2]
  GM-CSF released: 54 ± 65
  IFN-γ released: 30 ± 24
  IL-6 released: 2320 ± 1081
  IL-8 released: 118 ± 62 ng/mL
  IL-16 released: 1314 ± 723
Human PBMN [2]; six patients
  IL-1α released: 129 ± 135
Human PBMN [3]; 1X 199 Medium, LPS 10 ng/10 μl, 1 patient
  TNF Released: 124 pg/mL
Human PBMN [3]; 1X 199 Medium, LPS 50 ng/10 μl, 1 patient
  TNF Released: 155 pg/mL
Human PBMN [3]; 1X 199 Medium, LPS 100 ng/10 μl, 1 patient
  TNF Released: 147 pg/mL
Human PBMN [3]; 1X 199 Medium, LPS 200 ng/10 μl, 1 patient
  TNF Released: 213 pg/mL
Human PBMN [3]; 1X 199 Medium, LPS 1000 ng/10 μl, 1 patient
  TNF Released: 404 pg/mL
Human PBMN [3]; 1640 RPMI Medium, LPS 50 ng/10 μl, 1 patient
  TNF Released: 356 pg/mL
Human PBMN [3]; 1640 RPMI Medium, LPS 100 ng/10 μl, 1 patient
  TNF Released: 323 pg/mL
Human PBMN [3]; 1640 RPMI Medium, LPS 200 ng/10 μl, 1 patient
  TNF Released: 455 pg/mL
Human PBMN [3]; 1640 RPMI Medium, LPS 1000 ng/10 μl, 1 patient
  TNF Released: 558 pg/mL
Human PBMN [3]; 2 hr
  TNF Released by LPS (50 ng/ml): 697 pg/mL and 697 ± 94 pg/mL
Human PBMN [3]; 24 hr
  TNF Released by LPS (50 ng/ml): 800 ± 222 pg/mL
Human PBMN [3]; 48 hr
  TNF Released by LPS (50 ng/ml): 170 ± 149 pg/mL
Human PBMN [3]; 72 hr
  TNF Released by LPS (50 ng/ml): 132 ± 147 pg/mL
Human PBMN [3]; LPS 50 ng (Table 29)
  TNF Released -LPS: 0 pg/mL
Human PBMN [3]; LPS 50 ng (Table 30)
  TNF Released -LPS: 0 pg/mL
Human PBMN [3]; LPS 50 ng/10 μl (Table 24)
  TNF Released −LPS: 0 pg/mL
Human PBMN [3]; LPS 50 ng/10 μl (Table 25)
  TNF Released -LPS: 0 pg/mL
Human PBMN [3]; LPS 50 ng/10 μl (Table 26)
  TNF Released -LPS: 0 pg/mL
Human PBMN [3]; LPS 50 ng/10 μl, 1X 199 Medium, 2 patients (Table 26)
  TNF Released Total: 136 ± 38 pg/mL
Human PBMN [3]; LPS 50 ng/10 μl, 1X 199 Medium, 5 patients (Table 24)
  TNF Released Total: 161 ± 50 pg/mL
Human PBMN [3]; LPS 50 ng/10 μl, 199 Medium, 2 patients (Table 25)
  TNF Released Total: 194 ± 93 pg/mL
Human PBMN [3]; LPS 50 ng, 199 Medium, 5 patients (Table 29)
  TNF Released Total: 322 ± 115 pg/mL
Human PBMN [3]; LPS 50 ng, 199 Medium, 5 patients (Table 30)
  TNF Released Total: 99 ± 43 pg/mL
Human PBMN [3]; [5]
  TNF Released -LPS: 0 pg/mL
  TNF Released Total: 136 ± 62 pg/mL
Human PBMN [3]; [6]
  TNF Released -LPS: 0 pg/mL
  TNF Released Total: 81 ± 25 pg/mL
Human PBMN [3]; LPS (50 ng/ml) alone, Table 10
  TNF Released: 915 ± 763
Human PBMN [3]; absence of Polymyxin, 200 μl, 5 patients (Table 22)
  TNF Released −LPS: 0 pg/mL
Human PBMN [3]; absence of Polymyxin, composition and fractions 200 μl, LPS 50 ng/10 μl, 5 patients (Table 22)
  TNF Released Total: 219 pg/mL
Human PBMN [3]; absence of Polymyxin, footnote 200 μl, 3 patients (Table 23)
  TNF Released −LPS: 0 pg/mL
Human PBMN [3]; absence of Polymyxin, footnote: composition and fractions 200 μl, LPS 50 ng/10 μl, 3 patients (Table 23)
  TNF Released Total: 195 ± 72 pg/mL
Human PBMN [3]; no additive, LPS 50 ng/10 μl, composition 200 μl (Table 19)
  TNF Released −LPS: 0 pg/mL
Human PBMN [3]; no additive, LPS 50 ng/10 μl, composition 200 μl, 3 patients (Table 19)
  TNF Released Total: 517 pg/mL and 517 ± 118 pg/mL
Human PBMN [4]; Polymyxin 50.000 units/ml, composition and fractions 200 μl, LPS 50 ng/10 μl, 2 patients (Table 21)
  TNF Released Total: 31 ± 31 pg/mL
Human PBMN [4]; Polymyxin 50,000 units/ml, LPS 50 ng/10 μl, composition 200 μl (Table 19)
  TNF Released −LPS: 0 pg/mL
Human PBMN [4]; Polymyxin 50,000 units/ml, LPS 50 ng/10 μl, composition 200 μl, 8 patients (Table 19)
  TNF Released Total: 11 pg/mL and 11 ± 7 pg/mL
Human PBMN [4]; Polymyxin 50,000 units/ml, composition and fractions 200 μl, LPS 50 ng/10 μl, 5 patients (Table 20)
  TNF Released Total: 40 ± 25 pg/mL
Human PBMN [4]; Polymyxin, 200 μl, 2 patients (Table 21)
  TNF Released −LPS: 0 pg/mL
Human PBMN [4]; Polymyxin, 200 μl, 5 patients (Table 20)
  TNF Released −LPS: 0 pg/mL
